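Grown in 96-well plates, cells were treated for 48 hours with each compound at five concentrations. Insufficient inhibition: endpoint recorded as highest concentration tested. TGI: concentration producing complete growth inhibition.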
Legend:
Assay in all cases: DTP human tumour cell line panel, 48 h
786-0 renal = test system: 786-0 renal
A549 NSCLC = test system: A549 NSCLC
ACHN renal = test system: ACHN renal
CAKI-1 renal = test system: CAKI-1 renal
CCRF-CEM leukemia = test system: CCRF-CEM leukemia
COLO 205 colon = test system: COLO 205 colon
DU-145 prostate = test system: DU-145 prostate
EKVX NSCLC = test system: EKVX NSCLC
HCC-2998 colon = test system: HCC-2998 colon
HCT-116 colon = test system: HCT-116 colon
HCT-15 colon = test system: HCT-15 colon
HL-60(TB) leukemia = test system: HL-60(TB) leukemia
HOP-62 NSCLC = test system: HOP-62 NSCLC
HOP-92 NSCLC = test system: HOP-92 NSCLC
HS 578T breast = test system: HS 578T breast
HT29 colon = test system: HT29 colon
IGROV1 ovarian = test system: IGROV1 ovarian
K-562 leukemia = test system: K-562 leukemia
KM12 colon = test system: KM12 colon
LOX IMVI melanoma = test system: LOX IMVI melanoma
M14 melanoma = test system: M14 melanoma
MALME-3M melanoma = test system: MALME-3M melanoma
MCF7 breast = test system: MCF7 breast
MDA-MB-231 breast = test system: MDA-MB-231 breast
MDA-MB-435 = test system: MDA-MB-435
MDA-N = test system: MDA-N
MOLT-4 leukemia = test system: MOLT-4 leukemia
NCI-H226 lung = test system: NCI-H226 lung
NCI-H23 lung = test system: NCI-H23 lung
NCI-H460 lung = test system: NCI-H460 lung
NCI/ADR-RES ovarian = test system: NCI/ADR-RES ovarian
OVCAR-3 ovarian = test system: OVCAR-3 ovarian
OVCAR-4 ovarian = test system: OVCAR-4 ovarian
OVCAR-5 ovarian = test system: OVCAR-5 ovarian
OVCAR-8 ovarian = test system: OVCAR-8 ovarian
PC-3 prostate = test system: PC-3 prostate
RPMI-8226 leukemia = test system: RPMI-8226 leukemia
RXF 393 renal = test system: RXF 393 renal
SF-268 CNS = test system: SF-268 CNS
SF-295 CNS = test system: SF-295 CNS
SF-539 CNS = test system: SF-539 CNS
SK-MEL-2 melanoma = test system: SK-MEL-2 melanoma
SK-MEL-28 melanoma = test system: SK-MEL-28 melanoma
SK-MEL-5 melanoma = test system: SK-MEL-5 melanoma
SK-OV-3 ovarian = test system: SK-OV-3 ovarian
SN12C renal = test system: SN12C renal
SNB-19 CNS = test system: SNB-19 CNS
SNB-75 CNS = test system: SNB-75 CNS
SR leukemia = test system: SR leukemia
SW-620 colon = test system: SW-620 colon
T-47D breast = test system: T-47D breast
TK-10 renal = test system: TK-10 renal
U251 CNS = test system: U251 CNS
UACC-257 melanoma = test system: UACC-257 melanoma
UACC-62 melanoma = test system: UACC-62 melanoma
UO-31 renal = test system: UO-31 renal
A498 renal = test system: A498 renal
NCI-H522 lung = test system: NCI-H522 lung

c1ccc(C[n+]2ccc3c(c2)CCCC3)cc1
TGI (786-0 renal): > 100 µM | TGI (A549 NSCLC): > 100 µM | TGI (ACHN renal): > 100 µM | TGI (CAKI-1 renal): > 100 µM | TGI (CCRF-CEM leukemia): > 100 µM | TGI (COLO 205 colon): > 100 µM | TGI (DU-145 prostate): > 100 µM | TGI (EKVX NSCLC): 85.8 µM | TGI (HCC-2998 colon): > 100 µM | TGI (HCT-116 colon): > 100 µM | TGI (HCT-15 colon): > 100 µM | TGI (HL-60(TB) leukemia): > 100 µM | TGI (HOP-62 NSCLC): > 100 µM | TGI (HOP-92 NSCLC): > 100 µM | TGI (HS 578T breast): > 100 µM | TGI (HT29 colon): > 100 µM | TGI (IGROV1 ovarian): > 100 µM | TGI (K-562 leukemia): > 100 µM | TGI (KM12 colon): > 100 µM | TGI (LOX IMVI melanoma): > 100 µM | TGI (M14 melanoma): > 100 µM | TGI (MALME-3M melanoma): > 100 µM | TGI (MCF7 breast): > 100 µM | TGI (MDA-MB-231 breast): > 100 µM | TGI (MDA-MB-435): > 100 µM | TGI (MDA-N): > 100 µM | TGI (MOLT-4 leukemia): > 100 µM | TGI (NCI-H226 lung): > 100 µM | TGI (NCI-H23 lung): > 100 µM | TGI (NCI-H460 lung): > 100 µM | TGI (NCI/ADR-RES ovarian): > 100 µM | TGI (OVCAR-3 ovarian): > 100 µM | TGI (OVCAR-4 ovarian): > 100 µM | TGI (OVCAR-5 ovarian): > 100 µM | TGI (OVCAR-8 ovarian): > 100 µM | TGI (PC-3 prostate): > 100 µM | TGI (RPMI-8226 leukemia): > 100 µM | TGI (RXF 393 renal): > 100 µM | TGI (SF-268 CNS): > 100 µM | TGI (SF-295 CNS): > 100 µM | TGI (SF-539 CNS): > 100 µM | TGI (SK-MEL-2 melanoma): > 100 µM | TGI (SK-MEL-28 melanoma): > 100 µM | TGI (SK-MEL-5 melanoma): > 100 µM | TGI (SK-OV-3 ovarian): > 100 µM | TGI (SN12C renal): > 100 µM | TGI (SNB-19 CNS): > 100 µM | TGI (SNB-75 CNS): > 100 µM | TGI (SR leukemia): > 100 µM | TGI (SW-620 colon): > 100 µM | TGI (T-47D breast): > 100 µM | TGI (TK-10 renal): > 100 µM | TGI (U251 CNS): > 100 µM | TGI (UACC-257 melanoma): > 100 µM | TGI (UACC-62 melanoma): > 100 µM | TGI (UO-31 renal): > 100 µM

CCCCCc1c(Cl)nc(Cl)nc1Cl
TGI (786-0 renal): 12.8 µM | TGI (A498 renal): 34.7 µM | TGI (A549 NSCLC): > 92.3 µM | TGI (ACHN renal): 77.7 µM | TGI (CAKI-1 renal): 8.6 µM | TGI (CCRF-CEM leukemia): 0.65 µM | TGI (COLO 205 colon): 27 µM | TGI (DU-145 prostate): 45.5 µM | TGI (EKVX NSCLC): 52 µM | TGI (HCC-2998 colon): 27 µM | TGI (HCT-116 colon): 14.1 µM | TGI (HCT-15 colon): 29.9 µM | TGI (HL-60(TB) leukemia): 5.93 µM | TGI (HOP-62 NSCLC): 39.7 µM | TGI (HOP-92 NSCLC): 15.3 µM | TGI (HS 578T breast): > 100 µM | TGI (HT29 colon): 18.5 µM | TGI (IGROV1 ovarian): 31.9 µM | TGI (K-562 leukemia): 7.45 µM | TGI (KM12 colon): 28.6 µM | TGI (LOX IMVI melanoma): 6.01 µM | TGI (M14 melanoma): 5.46 µM | TGI (MALME-3M melanoma): 28.1 µM | TGI (MCF7 breast): 27.3 µM | TGI (MDA-MB-231 breast): 17.8 µM | TGI (MDA-MB-435): 6.98 µM | TGI (MDA-N): 16.6 µM | TGI (MOLT-4 leukemia): 1.01 µM | TGI (NCI-H226 lung): 6.02 µM | TGI (NCI-H23 lung): 16 µM | TGI (NCI-H460 lung): 51.9 µM | TGI (NCI-H522 lung): 6.61 µM | TGI (NCI/ADR-RES ovarian): 46.3 µM | TGI (OVCAR-3 ovarian): 30.8 µM | TGI (OVCAR-4 ovarian): 43 µM | TGI (OVCAR-5 ovarian): 31.1 µM | TGI (OVCAR-8 ovarian): 25.9 µM | TGI (PC-3 prostate): 36.9 µM | TGI (RPMI-8226 leukemia): 12.3 µM | TGI (RXF 393 renal): 23.7 µM | TGI (SF-268 CNS): 49.2 µM | TGI (SF-295 CNS): 53.7 µM | TGI (SF-539 CNS): 29.9 µM | TGI (SK-MEL-28 melanoma): 46.5 µM | TGI (SK-MEL-5 melanoma): 18.1 µM | TGI (SK-OV-3 ovarian): 31.8 µM | TGI (SN12C renal): 10.8 µM | TGI (SNB-19 CNS): 38.9 µM | TGI (SNB-75 CNS): 93.1 µM | TGI (SR leukemia): 0.86 µM | TGI (SW-620 colon): 26.2 µM | TGI (T-47D breast): 52.2 µM | TGI (TK-10 renal): 32.2 µM | TGI (U251 CNS): 25.1 µM | TGI (UACC-257 melanoma): 29.7 µM | TGI (UACC-62 melanoma): 43.3 µM | TGI (UO-31 renal): 37.9 µM

CC(C)=CCc1ccc2[nH]c3c(c2c1)C(=O)C(=O)C(C)=C3C(O)C(C)O (stereo not given)
TGI (786-0 renal): 3.27 µM | TGI (A498 renal): 25.8 µM | TGI (A549 NSCLC): 56.5 µM | TGI (ACHN renal): 11.5 µM | TGI (CAKI-1 renal): 11.5 µM | TGI (CCRF-CEM leukemia): 4.98 µM | TGI (COLO 205 colon): 4.89 µM | TGI (DU-145 prostate): 22.4 µM | TGI (EKVX NSCLC): 30.1 µM | TGI (HCC-2998 colon): 14.8 µM | TGI (HCT-116 colon): 3.43 µM | TGI (HCT-15 colon): 16.3 µM | TGI (HL-60(TB) leukemia): 2.53 µM | TGI (HOP-62 NSCLC): 37.8 µM | TGI (HOP-92 NSCLC): 3.51 µM | TGI (HS 578T breast): 50.1 µM | TGI (HT29 colon): 35.1 µM | TGI (IGROV1 ovarian): 7.2 µM | TGI (K-562 leukemia): 5.78 µM | TGI (KM12 colon): 30.1 µM | TGI (LOX IMVI melanoma): 4.73 µM | TGI (M14 melanoma): 3.9 µM | TGI (MALME-3M melanoma): 3.37 µM | TGI (MCF7 breast): 3.4 µM | TGI (MDA-MB-231 breast): 15.8 µM | TGI (MDA-MB-435): 9.57 µM | TGI (MDA-N): 19.7 µM | TGI (MOLT-4 leukemia): 4.83 µM | TGI (NCI-H226 lung): 34.2 µM | TGI (NCI-H23 lung): 31.8 µM | TGI (NCI-H460 lung): 37.2 µM | TGI (NCI/ADR-RES ovarian): > 85.4 µM | TGI (OVCAR-3 ovarian): 13 µM | TGI (OVCAR-4 ovarian): 13.2 µM | TGI (OVCAR-5 ovarian): 34.2 µM | TGI (OVCAR-8 ovarian): 3.91 µM | TGI (PC-3 prostate): 43.4 µM | TGI (RPMI-8226 leukemia): 6.17 µM | TGI (RXF 393 renal): 4.68 µM | TGI (SF-268 CNS): 25 µM | TGI (SF-295 CNS): 25 µM | TGI (SF-539 CNS): 34 µM | TGI (SK-MEL-2 melanoma): > 82.9 µM | TGI (SK-MEL-28 melanoma): 28.1 µM | TGI (SK-MEL-5 melanoma): 7.22 µM | TGI (SK-OV-3 ovarian): 29.7 µM | TGI (SN12C renal): 45.8 µM | TGI (SNB-19 CNS): 31 µM | TGI (SNB-75 CNS): 34.1 µM | TGI (SR leukemia): 12.4 µM | TGI (SW-620 colon): 4.7 µM | TGI (T-47D breast): 6.11 µM | TGI (TK-10 renal): 4.76 µM | TGI (U251 CNS): 13.2 µM | TGI (UACC-257 melanoma): 3.71 µM | TGI (UACC-62 melanoma): 11.6 µM | TGI (UO-31 renal): 2.96 µM

Source: PubChem BioAssay (NCI)
